What all share (type): functional
The subject of experiment [1] is Mycobacterium tuberculosis. In words: Antitubercular activity against Mycobacterium tuberculosis H37Rv after 10 days by tube dilution method. As to conditions: 240 h.
Experiment [2] concerns Mycobacterium tuberculosis. In words: Antitubercular activity against Mycobacterium tuberculosis H37Rv.
In experiment [3] the test system is Mycobacterium tuberculosis. Kind of experiment: Antimycobacterial activity against Mycobacterium tuberculosis Erdman ATCC 35801 by broth dilution method.
For experiment [4], the system named is Mycobacterium tuberculosis. Kind of experiment: Potency index, ratio of isoniazid MIC to compound MIC for Mycobacterium tuberculosis clinical isolate 303.
Experiment [5] relates to Mycobacterium tuberculosis. Kind of experiment: Antimycobacterial activity against Mycobacterium tuberculosis infected in C57BL/6 mouse assessed as reduction in colony forming units per lung at 100 mg/kg administered via gavage for 2 days measured last post dose.
Experiment [6] has as its system Mycobacterium tuberculosis. In words: Antimycobacterial activity against Mycobacterium tuberculosis clinical isolate 303 by broth dilution method.
Experiment [7] has as its system Mycobacterium tuberculosis. Kind of experiment: Antimycobacterial activity against Mycobacterium tuberculosis clinical isolate 1889 by broth dilution method.
The subject of experiment [8] is Mycobacterium tuberculosis. Kind of experiment: Antimycobacterial activity against Mycobacterium tuberculosis clinical isolate 35829 by broth dilution method.
Experiment [9] has as its system Mycobacterium tuberculosis. Kind of experiment: Potency index, ratio of isoniazid MIC to compound MIC for Mycobacterium tuberculosis clinical isolate 1889.
Experiment [10] deals with Mycobacterium tuberculosis. In words: Potency index, ratio of isoniazid MIC to compound MIC for Mycobacterium tuberculosis clinical isolate 35829.
In experiment [11] the test system is Mycobacterium tuberculosis. In words: Antimycobacterial activity against Mycobacterium tuberculosis H37Rv after 10 to 12 days by serial dilution method.
Experiment [12] has as its system Mycobacterium tuberculosis. In words: Antimycobacterial activity against Mycobacterium tuberculosis H37Rv by NCCLS method.
In experiment [13] the test system is Mycobacterium tuberculosis. Kind of experiment: Potency index, ratio of pyrazinamide MIC to compound MIC for Mycobacterium tuberculosis H37Rv.
Experiment [14] has as its system Mycobacterium tuberculosis. Kind of experiment: Antimycobacterial activity against Mycobacterium tuberculosis H37Rv ATCC 27294 measured after 5 to 8 days.
Experiment [15] has as its system Mycobacterium tuberculosis. Kind of experiment: Growth inhibition of Mycobacterium tuberculosis H37Rv ATCC 27294 measured after 5 to 8 days.
For experiment [16], the system named is Mycobacterium tuberculosis. Kind of experiment: Antimycobacterial activity against Mycobacterium tuberculosis H37Rv ATCC 27294 at < 0.1 ug/mL by microplate alamar blue assay.
The subject of experiment [17] is Mycobacterium tuberculosis. In words: Antimycobacterial activity against Mycobacterium tuberculosis infected in C57BL/6 mouse assessed as colony forming units per lung at 25 mg/kg administered via gavage for 2 days measured last post dose (reference value: 6.53 +/- 0.16 log10CFU).
The test system of experiment [18] is Mycobacterium tuberculosis. Kind of experiment: Antimycobacterial activity against Mycobacterium tuberculosis H37Rv after 5 days by microplate alamar blue assay. To be noted: 120 h.
The test system of experiment [19] is Mycobacterium tuberculosis. Kind of experiment: Antimycobacterial activity against Bovin sensitive Mycobacterium tuberculosis measured after six weeks.
For experiment [20], the system named is Mycobacterium tuberculosis. In words: Antimycobacterial activity against human sensitive Mycobacterium tuberculosis measured after six weeks.
Experiment [21] deals with Mycobacterium tuberculosis. Kind of experiment: Antimycobacterial activity against Mycobacterium tuberculosis H37Rv by serial dilution method.
The subject of experiment [22] is Mycobacterium tuberculosis. In words: Antimycobacterial activity against Mycobacterium tuberculosis Academia by serial dilution method.
In experiment [23] the test system is Mycobacterium avium. In words: Antimycobacterial activity against Mycobacterium avium 330/88 measured after 14 to 21 days by micromethod.
The test system of experiment [24] is Mycobacterium tuberculosis. Kind of experiment: Antimycobacterial activity against Mycobacterium tuberculosis 331/88 after 14 to 21 days by micromethod.

Converted amounts (≈) assume the structure as drawn.

For the compound `CCC(CO)Nc1nc(Cl)nc(NNC(=O)c2ccncc2)n1` (stereo not drawn), it took 20 µg/mL (≈ 59.2 µM) to inhibit growth in [1] (MIC).
The compound `O=C(NN1C(=O)C(Cl)C1c1cc2ccccc2nc1Cl)c1ccncc1` (stereo not drawn) displayed a minimum inhibitory concentration (MIC) in experiment [2] of 12.5 µg/mL.
As for `Cc1ccc(C)n1NC(=O)c1ccccc1`, the minimal inhibitory concentration (MIC) in [3] is 3.2 µg/mL (≈ 14.9 µM); in experiment [6], 4 to 8 µg/mL (≈ 18.7 to 37.3 µM); in [7], 4 to 8 µg/mL (≈ 18.7 to 37.3 µM); in [8], 4 to 8 µg/mL (≈ 18.7 to 37.3 µM). The Ratio in experiment [4], in experiment [9] and in experiment [10] was 2 each time. The Activity in experiment [5] is recorded as 1.5 log10CFU.
Turning to `COc1nc2ccc(C)cc2cc1C1C(Cl)C(=O)N1NC(=O)c1ccncc1` (stereo not drawn), the MIC in experiment [2] was 3.12 to 6.25 µg/mL.
`C=C1C[C@]23CC[C@@H]4[C@](C)(CCC[C@@]4(C)C(=O)O)[C@H]2CC[C@]1(O[C@@H]1O[C@H](CO)[C@@H](O)[C@H](O)[C@H]1O[C@@H]1O[C@H](CO)[C@@H](O)[C@H](O)[C@H]1O)C3` came in with an MIC in experiment [11] of 3.75 to 5 µg/mL (≈ 5.83 to 7.78 µM).
Turning to `Cc1c(C(=O)NNC(=O)c2ccncc2)nn(-c2ccc(Cl)cc2Cl)c1-c1ccc(Cl)cc1`, the lowest concentration to inhibit growth in experiment [12] (MIC) was 12.5 µg/mL (≈ 25 µM). In addition, the Ratio in [13] is recorded as 2.
`C[C@]12CC[C@H]3[C@@](CC[C@@H]4[C@]3(C)CCC[C@@]4(C)C(=O)O)(CC1=O)C2` displayed an MIC in experiment [11] of 50 µg/mL (≈ 157 µM).
In experiment [1], `O=C(NNc1nc(Cl)nc(NC(=O)c2cnccn2)n1)c1ccncc1` displayed an MIC of 20 µg/mL (≈ 53.8 µM).
Compound `CCn1cc(C(=O)O)c(=O)c2cc(F)c(N3CCN(CN4C(=O)/C(=N\NC(=O)c5ccncc5)c5ccccc54)CC3)cc21` gave a minimal inhibitory concentration (MIC) in experiment [14] of less than 6.25 µg/mL. In addition, the “growth inhibition (GI)” value in experiment [15] is on record as 100%.
As for `C[C@]12CC=CC[C@@H]1CC[C@@H]1[C@@H]2CC[C@]2(C)/C(=N/NC(=O)c3ccncc3)CC[C@@H]12`, in experiment [16], the “inhibition (INH)” value is reported as more than 95%.
Turning to `CCn1cc(C(=O)O)c(=O)c2cc(F)c(N3CCN(CN4C(=O)/C(=N\NC(=O)c5ccncc5)c5cc(Cl)ccc54)CC3)cc21`, in experiment [14], the MIC lay in the range of 6.25 to 12.5 µg/mL (≈ 9.89 to 19.8 µM). Also, the “growth inhibition (GI)” value in experiment [15] was 99%.
`C=C1C[C@]23CC[C@@H]4[C@](C)(CCC[C@@]4(C)C(=O)NNc4ccncc4)[C@H]2CC[C@]1(O[C@@H]1O[C@H](COC(C)=O)[C@@H](OC(C)=O)[C@H](OC(C)=O)[C@H]1O[C@@H]1O[C@H](COC(C)=O)[C@@H](OC(C)=O)[C@H](OC(C)=O)[C@H]1O)C3`: in [11], the MIC was 5 µg/mL (≈ 5.07 µM).
For `NNC(=O)c1ccncc1` [ISONIAZID], the Activity in experiment [17] was determined as 5.34 log10CFU. For the same compound, the minimum inhibitory concentration (MIC) in experiment [6] is 4 to 8 µg/mL (≈ 29.2 to 58.3 µM); in [7] it was 4 to 8 µg/mL (≈ 29.2 to 58.3 µM); in experiment [8], 4 to 8 µg/mL (≈ 29.2 to 58.3 µM); in experiment [18], 0.2 µg/mL (≈ 1.46 µM); in [19] it was 1.4 µg/mL (≈ 10.2 µM); in experiment [20], 1.4 µg/mL (≈ 10.2 µM). Also, the MIC in [14] was 0.025 to 0.05 µg/mL (≈ 0.182 to 0.365 µM); in experiment [21], 0.015 to 0.06 µg/mL (≈ 0.109 to 0.438 µM); in experiment [11], 0.1 µg/mL (≈ 0.729 µM); in experiment [12], 0.05 µg/mL (≈ 0.365 µM); in experiment [2], 1.45 µM; in experiment [22], 0.015 to 0.06 µg/mL (≈ 0.109 to 0.438 µM). Besides, the “growth inhibition (GI)” value in experiment [15] was 95%.
In experiment [1], `O=C(NNc1nc(Cl)nc(NNC(=O)c2ccncc2)n1)c1ccncc1` yielded an MIC of 20 µg/mL (≈ 51.8 µM).
In turn, `COc1ccc(/C=C2\SC(=O)N(CNNC(=O)c3ccncc3)C2=O)cc1` gave an MIC in experiment [2] of 50 to 100 µg/mL.
On the same count and under the same terms, next, `COc1nc2ccc(Br)cc2cc1C1C(Cl)C(=O)N1NC(=O)c1ccncc1` (stereo not drawn): 3.12 to 6.25 µg/mL; `COc1nc2ccc(Cl)cc2cc1C1C(Cl)C(=O)N1NC(=O)c1ccncc1` (stereo not drawn): 3.12 to 6.25 µg/mL.
For `CCCCCCCCc1ccc(NC(=O)NNC(=O)c2ccncc2)cc1`, the minimal inhibitory concentration (MIC) in experiment [23] and in experiment [24] was 1 to 2 µM (≈ 0.368 to 0.737 µg/mL) in each case.
In the case of `O=C(N/N=C1\C(=O)N(Cc2ccccc2)c2ccccc21)c1ccncc1`, the MIC in experiment [19] and in experiment [20] was 2.7 to 3.5 µg/mL (≈ 7.58 to 9.82 µM) each time.
For `COc1c(N2CCNC(C)C2)c(F)cc2c(=O)c(C(=O)O)cn(C3CC3)c12` (stereo not drawn) [GATIFLOXACIN], the MIC in [2] was found to be 3.12 µg/mL.
As to `NC(=O)c1cnccn1` [PYRAZINAMIDE], the minimum inhibitory concentration (MIC) in [11] was determined as 20 µg/mL (≈ 162 µM); in experiment [12], 50 µg/mL (≈ 406 µM).
In [18], `O=C(NN1C(=O)C(Cl)C1c1ccc([N+](=O)[O-])cc1)c1ccncc1` (stereo not drawn) registered a minimum inhibitory concentration (MIC) of 5 µg/mL (≈ 14.4 µM).
